In ChEMBL document CHEMBL4800727 (2021):

How the values were obtained:
[1] = molecular target: CDK9/cyclin T1 (Homo sapiens) (UniProt O60563+P50750); experiment: cyclin-dependent kinase 9 / cyclinT1 Millipore kinase panel; format: protein-complex assay; details: Compound concentration 10.0 uM
[2] = molecular target: Discoidin domain-containing receptor 2 (Homo sapiens) (UniProt Q16832); experiment: discoidin domain receptor tyrosine kinase 2 Millipore kinase panel; details: Compound concentration 10.0 uM
[3] = molecular target: Ephrin type-A receptor 1 (Homo sapiens) (UniProt P21709); experiment: EPH receptor A1 Millipore kinase panel; details: Compound concentration 10.0 uM
[4] = molecular target: Ephrin type-A receptor 8 (Homo sapiens) (UniProt P29322); experiment: EPH receptor A8 Millipore kinase panel; details: Compound concentration 10.0 uM
[5] = molecular target: Tyrosine-protein kinase Fes/Fps (Homo sapiens) (UniProt P07332); experiment: feline sarcoma oncogene Millipore kinase panel; details: Compound concentration 10.0 uM
[6] = molecular target: Vascular endothelial growth factor receptor 3 (Homo sapiens) (UniProt P35916); experiment: fms-related tyrosine kinase 4 Millipore kinase panel; details: Compound concentration 10.0 uM
[7] = molecular target: G protein-coupled receptor kinase 6 (Homo sapiens) (UniProt P43250); experiment: G protein-coupled receptor kinase 6 Millipore kinase panel; details: Compound concentration 10.0 uM
[8] = molecular target: Homeodomain-interacting protein kinase 2 (Homo sapiens) (UniProt Q9H2X6); experiment: homeodomain interacting protein kinase 2 Millipore kinase panel; details: Compound concentration 10.0 uM
[9] = molecular target: MAP kinase-interacting serine/threonine-protein kinase 2 (Homo sapiens) (UniProt Q9HBH9); experiment: MAP kinase interacting serine/threonine kinase 2 Millipore kinase panel; details: Compound concentration 10.0 uM
[10] = molecular target: Serine/threonine-protein kinase MARK1 (Homo sapiens) (UniProt Q9P0L2); experiment: MAP/microtubule affinity-regulating kinase 1 Millipore kinase panel; details: Compound concentration 10.0 uM
Serine/threonine-protein kinase MARK1 (Homo sapiens), sequence (Q9P0L2 whole entry, looked up): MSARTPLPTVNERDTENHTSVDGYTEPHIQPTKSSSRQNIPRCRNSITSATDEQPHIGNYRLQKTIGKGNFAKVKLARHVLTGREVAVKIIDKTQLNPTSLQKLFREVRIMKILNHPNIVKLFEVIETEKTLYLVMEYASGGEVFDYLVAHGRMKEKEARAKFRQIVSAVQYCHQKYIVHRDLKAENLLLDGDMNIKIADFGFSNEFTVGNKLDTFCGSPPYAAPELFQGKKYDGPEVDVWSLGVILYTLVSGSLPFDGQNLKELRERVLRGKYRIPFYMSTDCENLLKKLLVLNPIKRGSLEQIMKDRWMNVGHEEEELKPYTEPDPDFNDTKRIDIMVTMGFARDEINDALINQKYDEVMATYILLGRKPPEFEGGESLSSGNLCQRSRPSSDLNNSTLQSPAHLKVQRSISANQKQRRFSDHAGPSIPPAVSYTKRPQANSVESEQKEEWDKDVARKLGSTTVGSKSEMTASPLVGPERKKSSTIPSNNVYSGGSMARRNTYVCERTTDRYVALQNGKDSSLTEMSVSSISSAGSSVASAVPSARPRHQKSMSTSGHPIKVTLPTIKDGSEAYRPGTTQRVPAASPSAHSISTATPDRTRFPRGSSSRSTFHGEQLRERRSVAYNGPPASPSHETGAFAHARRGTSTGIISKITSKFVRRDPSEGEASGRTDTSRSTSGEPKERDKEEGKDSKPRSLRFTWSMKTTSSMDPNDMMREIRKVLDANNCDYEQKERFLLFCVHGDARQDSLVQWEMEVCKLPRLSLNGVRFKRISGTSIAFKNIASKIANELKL

[11] = molecular target: Misshapen-like kinase 1 (Homo sapiens) (UniProt Q8N4C8); experiment: misshapen-like kinase 1 Millipore kinase panel; details: Compound concentration 10.0 uM
[12] = molecular target: MAP kinase-activated protein kinase 2 (Homo sapiens) (UniProt P49137); experiment: mitogen-activated protein kinase-activated protein kinase 2 Millipore kinase panel; details: Compound concentration 10.0 uM
[13] = molecular target: Mitogen-activated protein kinase kinase kinase kinase 1 (Homo sapiens) (UniProt Q92918); experiment: mitogen-activated protein kinase kinase kinase kinase 1 Millipore kinase panel; details: Compound concentration 10.0 uM
[14] = molecular target: Myosin light chain kinase, smooth muscle (Homo sapiens) (UniProt Q15746); experiment: myosin light chain kinase Millipore kinase panel; details: Compound concentration 10.0 uM
[15] = molecular target: Serine/threonine-protein kinase Nek11 (Homo sapiens) (UniProt Q8NG66); experiment: NIMA -related kinase 11 Millipore kinase panel; details: Compound concentration 10.0 uM
[16] = molecular target: PAS domain-containing serine/threonine-protein kinase (Homo sapiens) (UniProt Q96RG2); experiment: PAS domain containing serine/threonine kinase Millipore kinase panel; details: Compound concentration 10.0 uM
PAS domain-containing serine/threonine-protein kinase (Homo sapiens), sequence (Q96RG2 whole entry, the tested form may be a part): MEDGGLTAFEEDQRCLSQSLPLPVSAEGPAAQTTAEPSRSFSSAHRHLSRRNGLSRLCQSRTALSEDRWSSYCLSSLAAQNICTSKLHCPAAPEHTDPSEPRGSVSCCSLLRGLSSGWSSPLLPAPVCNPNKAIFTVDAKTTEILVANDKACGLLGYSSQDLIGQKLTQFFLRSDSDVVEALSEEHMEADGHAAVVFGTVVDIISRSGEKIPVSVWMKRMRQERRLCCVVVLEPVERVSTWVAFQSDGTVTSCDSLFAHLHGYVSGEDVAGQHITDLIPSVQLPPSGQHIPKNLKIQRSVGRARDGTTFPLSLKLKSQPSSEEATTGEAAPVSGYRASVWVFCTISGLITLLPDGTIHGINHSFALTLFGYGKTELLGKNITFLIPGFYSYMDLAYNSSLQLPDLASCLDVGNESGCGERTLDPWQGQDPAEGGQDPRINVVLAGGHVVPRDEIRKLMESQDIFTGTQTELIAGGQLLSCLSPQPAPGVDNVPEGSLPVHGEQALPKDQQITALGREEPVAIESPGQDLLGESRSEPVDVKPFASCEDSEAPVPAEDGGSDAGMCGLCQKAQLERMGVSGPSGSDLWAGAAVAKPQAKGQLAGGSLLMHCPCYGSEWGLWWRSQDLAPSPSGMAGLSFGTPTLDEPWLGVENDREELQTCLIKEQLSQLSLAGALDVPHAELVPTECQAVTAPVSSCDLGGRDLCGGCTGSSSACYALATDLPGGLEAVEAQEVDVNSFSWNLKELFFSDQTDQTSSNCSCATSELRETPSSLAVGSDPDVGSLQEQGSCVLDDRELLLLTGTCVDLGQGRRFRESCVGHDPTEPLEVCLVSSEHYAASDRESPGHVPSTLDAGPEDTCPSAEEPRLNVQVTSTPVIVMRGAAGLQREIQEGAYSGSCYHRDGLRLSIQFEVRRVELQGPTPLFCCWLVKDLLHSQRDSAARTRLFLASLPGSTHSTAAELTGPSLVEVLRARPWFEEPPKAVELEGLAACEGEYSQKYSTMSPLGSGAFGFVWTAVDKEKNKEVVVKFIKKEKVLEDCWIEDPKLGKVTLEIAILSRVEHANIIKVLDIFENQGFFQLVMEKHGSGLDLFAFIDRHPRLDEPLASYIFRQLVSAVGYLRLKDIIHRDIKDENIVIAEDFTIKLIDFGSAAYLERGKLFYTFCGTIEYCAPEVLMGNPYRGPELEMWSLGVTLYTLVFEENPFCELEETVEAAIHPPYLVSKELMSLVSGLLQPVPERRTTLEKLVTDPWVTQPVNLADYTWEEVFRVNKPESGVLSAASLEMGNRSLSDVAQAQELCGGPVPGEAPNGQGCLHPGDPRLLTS

[17] = molecular target: Serine/threonine-protein kinase PLK3 (Homo sapiens) (UniProt Q9H4B4); experiment: polo-like kinase 3 Millipore kinase panel; details: Compound concentration 10.0 uM
[18] = molecular target: 5'-AMP-activated protein kinase catalytic subunit alpha-2 (Homo sapiens) (UniProt P54646); experiment: protein kinase, AMP-activated, alpha 2 catalytic subunit Millipore kinase panel; details: Compound concentration 10.0 uM
[19] = molecular target: Focal adhesion kinase 1 (Homo sapiens) (UniProt Q05397); experiment: PTK2 protein tyrosine kinase 2 Millipore kinase panel; details: Compound concentration 10.0 uM
[20] = molecular target: Protein-tyrosine kinase 2-beta (Homo sapiens) (UniProt Q14289); experiment: PTK2B protein tyrosine kinase 2 beta Millipore kinase panel; details: Compound concentration 10.0 uM
Protein-tyrosine kinase 2-beta (Homo sapiens), sequence (Q14289 whole entry, looked up): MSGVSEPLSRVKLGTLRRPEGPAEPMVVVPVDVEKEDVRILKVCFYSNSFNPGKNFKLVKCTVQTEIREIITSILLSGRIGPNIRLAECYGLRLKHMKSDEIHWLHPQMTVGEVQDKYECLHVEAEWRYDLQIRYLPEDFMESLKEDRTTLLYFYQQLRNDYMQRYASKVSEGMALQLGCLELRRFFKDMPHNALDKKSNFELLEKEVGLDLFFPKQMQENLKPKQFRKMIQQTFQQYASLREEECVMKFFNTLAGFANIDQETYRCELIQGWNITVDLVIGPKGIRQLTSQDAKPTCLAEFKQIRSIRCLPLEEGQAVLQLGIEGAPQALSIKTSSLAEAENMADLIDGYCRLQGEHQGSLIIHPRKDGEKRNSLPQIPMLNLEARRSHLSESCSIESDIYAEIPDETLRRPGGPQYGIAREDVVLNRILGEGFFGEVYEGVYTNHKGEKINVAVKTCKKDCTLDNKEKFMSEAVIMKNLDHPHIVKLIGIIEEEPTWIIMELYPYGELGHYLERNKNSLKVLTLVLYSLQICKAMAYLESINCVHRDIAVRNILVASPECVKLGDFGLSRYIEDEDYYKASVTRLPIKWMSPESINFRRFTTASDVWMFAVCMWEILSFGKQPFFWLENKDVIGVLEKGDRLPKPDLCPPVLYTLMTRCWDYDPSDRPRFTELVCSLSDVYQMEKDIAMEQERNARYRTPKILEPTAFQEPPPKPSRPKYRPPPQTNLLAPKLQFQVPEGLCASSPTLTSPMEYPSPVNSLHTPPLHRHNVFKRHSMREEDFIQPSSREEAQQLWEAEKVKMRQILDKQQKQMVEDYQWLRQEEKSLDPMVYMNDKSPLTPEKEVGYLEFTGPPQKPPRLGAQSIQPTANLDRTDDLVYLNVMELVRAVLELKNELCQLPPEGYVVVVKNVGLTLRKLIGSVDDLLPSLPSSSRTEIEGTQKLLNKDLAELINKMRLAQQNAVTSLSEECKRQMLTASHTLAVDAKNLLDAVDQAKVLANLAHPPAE

[21] = molecular target: Ribosomal protein S6 kinase beta-1 (Homo sapiens) (UniProt P23443); experiment: ribosomal protein S6 kinase, 70kDa, polypeptide 1 Millipore kinase panel; details: Compound concentration 10.0 uM
[22] = molecular target: Serine/threonine-protein kinase STK11 (Homo sapiens) (UniProt Q15831); experiment: serine/threonine kinase 11 Millipore kinase panel; details: Compound concentration 10.0 uM
Serine/threonine-protein kinase STK11 (Homo sapiens), sequence (Q15831 whole entry): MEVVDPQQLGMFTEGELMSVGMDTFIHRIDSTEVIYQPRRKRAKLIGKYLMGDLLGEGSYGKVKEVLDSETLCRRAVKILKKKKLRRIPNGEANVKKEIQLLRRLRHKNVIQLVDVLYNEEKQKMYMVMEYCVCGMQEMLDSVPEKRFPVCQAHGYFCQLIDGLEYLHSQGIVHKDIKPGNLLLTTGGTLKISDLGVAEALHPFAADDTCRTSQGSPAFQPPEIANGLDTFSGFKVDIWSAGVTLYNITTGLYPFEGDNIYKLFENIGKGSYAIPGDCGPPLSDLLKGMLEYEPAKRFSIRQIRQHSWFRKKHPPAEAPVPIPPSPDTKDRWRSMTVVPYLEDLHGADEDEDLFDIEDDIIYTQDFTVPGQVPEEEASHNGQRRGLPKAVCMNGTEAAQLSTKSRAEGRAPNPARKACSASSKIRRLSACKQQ

[23] = molecular target: Serine/threonine-protein kinase Sgk3 (Homo sapiens) (UniProt Q96BR1); experiment: serum/glucocorticoid regulated kinase family, member 3 Millipore kinase panel; details: Compound concentration 10.0 uM
[24] = molecular target: SRSF protein kinase 3 (Homo sapiens) (UniProt Q9UPE1); experiment: SFRS protein kinase 3 Millipore kinase panel; details: Compound concentration 10.0 uM
[25] = molecular target: Tyrosine-protein kinase SYK (Homo sapiens) (UniProt P43405); experiment: spleen tyrosine kinase Millipore kinase panel; details: Compound concentration 10.0 uM
[26] = molecular target: Serine/threonine-protein kinase TAO2 (Homo sapiens) (UniProt Q9UL54); experiment: TAO kinase 2 Millipore kinase panel; details: Compound concentration 10.0 uM
[27] = molecular target: Serine/threonine-protein kinase ULK2 (Homo sapiens) (UniProt Q8IYT8); experiment: unc-51-like kinase 2 Millipore kinase panel; details: Compound concentration 10.0 uM
[28] = molecular target: Proto-oncogene tyrosine-protein kinase Src (Homo sapiens) (UniProt P12931); experiment: v-src sarcoma viral oncogene homolog Millipore kinase panel; details: Compound concentration 10.0 uM
[29] = molecular target: Serine/threonine-protein kinase VRK2 (Homo sapiens) (UniProt Q86Y07); experiment: vaccinia related kinase 2 Millipore kinase panel; details: Compound concentration 10.0 uM
Serine/threonine-protein kinase VRK2 (Homo sapiens), sequence (Q86Y07 whole entry): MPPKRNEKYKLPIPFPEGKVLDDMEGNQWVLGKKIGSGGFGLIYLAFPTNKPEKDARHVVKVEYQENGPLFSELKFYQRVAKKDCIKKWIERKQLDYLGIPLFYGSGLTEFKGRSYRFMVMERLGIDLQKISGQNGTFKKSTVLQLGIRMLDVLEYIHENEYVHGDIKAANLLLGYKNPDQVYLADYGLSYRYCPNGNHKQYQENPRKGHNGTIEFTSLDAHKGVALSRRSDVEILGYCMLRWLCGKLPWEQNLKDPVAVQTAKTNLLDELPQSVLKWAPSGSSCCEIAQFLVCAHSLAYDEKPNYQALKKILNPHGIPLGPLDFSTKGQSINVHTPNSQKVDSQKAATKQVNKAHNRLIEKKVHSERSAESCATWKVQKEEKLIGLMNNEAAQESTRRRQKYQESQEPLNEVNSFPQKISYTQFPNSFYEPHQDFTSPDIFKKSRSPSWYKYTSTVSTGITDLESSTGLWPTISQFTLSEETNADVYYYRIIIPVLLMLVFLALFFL

[30] = molecular target: Tyrosine-protein kinase ZAP-70 (Homo sapiens) (UniProt P43403); experiment: zeta-chain associated protein kinase 70kDa Millipore kinase panel; details: Compound concentration 10.0 uM
[31] = molecular target: cGMP-dependent 3',5'-cyclic phosphodiesterase (Homo sapiens, UniProt O00408); experiment: hPDE2A PDE scan
[32] = molecular target: 3',5'-cyclic-AMP phosphodiesterase 4D (Homo sapiens, UniProt Q08499); experiment: hPDE4D3 PDE scan
[33] = molecular target: High affinity cGMP-specific 3',5'-cyclic phosphodiesterase 9A (Homo sapiens, UniProt O76083); experiment: hPDE9A PDE scan
[34] = molecular target: cAMP and cAMP-inhibited cGMP 3',5'-cyclic phosphodiesterase 10A (Homo sapiens, UniProt Q9Y233); experiment: hPDE10A2 PDE scan
[35] = molecular target: D(2) dopamine receptor (Homo sapiens) (UniProt P14416); experiment: hD2S Cerep panel; details: Compound concentration 10.0 uM
D(2) dopamine receptor (Homo sapiens), sequence (P14416 whole entry): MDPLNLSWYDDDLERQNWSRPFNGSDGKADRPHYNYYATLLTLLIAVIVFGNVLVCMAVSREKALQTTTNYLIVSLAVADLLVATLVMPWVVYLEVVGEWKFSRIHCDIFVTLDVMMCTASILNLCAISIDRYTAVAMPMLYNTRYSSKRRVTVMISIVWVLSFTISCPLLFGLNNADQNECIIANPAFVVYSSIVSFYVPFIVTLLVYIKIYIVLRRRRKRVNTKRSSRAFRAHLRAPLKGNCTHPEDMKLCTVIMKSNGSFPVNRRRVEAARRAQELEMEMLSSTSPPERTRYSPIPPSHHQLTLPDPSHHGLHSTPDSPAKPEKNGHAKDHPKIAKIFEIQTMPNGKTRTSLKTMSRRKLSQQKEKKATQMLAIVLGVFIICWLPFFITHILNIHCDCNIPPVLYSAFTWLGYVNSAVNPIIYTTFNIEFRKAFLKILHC

Rattus norvegicus = species: Rattus norvegicus; experiment: rCa channel Cerep panel; details: Compound concentration 10.0 uM
[36] = molecular target: T1, Alpha-2B adrenergic receptor (Homo sapiens) (UniProt P18089); experiment: hAb2 Cerep panel; details: Compound concentration 10.0 uM
T1 sequence (whole entry): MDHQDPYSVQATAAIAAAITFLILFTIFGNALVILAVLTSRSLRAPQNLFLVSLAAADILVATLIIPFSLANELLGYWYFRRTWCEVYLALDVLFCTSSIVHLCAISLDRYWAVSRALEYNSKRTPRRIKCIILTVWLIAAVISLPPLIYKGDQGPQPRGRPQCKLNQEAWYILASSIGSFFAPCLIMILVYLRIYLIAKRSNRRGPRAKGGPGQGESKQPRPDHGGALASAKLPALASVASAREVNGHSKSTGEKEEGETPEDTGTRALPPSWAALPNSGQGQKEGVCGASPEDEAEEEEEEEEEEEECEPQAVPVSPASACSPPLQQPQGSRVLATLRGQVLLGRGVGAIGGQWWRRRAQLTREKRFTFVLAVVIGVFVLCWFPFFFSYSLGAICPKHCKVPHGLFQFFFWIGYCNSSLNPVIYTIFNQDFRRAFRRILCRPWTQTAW

[37] = molecular target: D(1A) dopamine receptor (Homo sapiens) (UniProt P21728); experiment: hD1 Cerep panel; details: Compound concentration 10.0 uM
D(1A) dopamine receptor (Homo sapiens), sequence (P21728 whole entry): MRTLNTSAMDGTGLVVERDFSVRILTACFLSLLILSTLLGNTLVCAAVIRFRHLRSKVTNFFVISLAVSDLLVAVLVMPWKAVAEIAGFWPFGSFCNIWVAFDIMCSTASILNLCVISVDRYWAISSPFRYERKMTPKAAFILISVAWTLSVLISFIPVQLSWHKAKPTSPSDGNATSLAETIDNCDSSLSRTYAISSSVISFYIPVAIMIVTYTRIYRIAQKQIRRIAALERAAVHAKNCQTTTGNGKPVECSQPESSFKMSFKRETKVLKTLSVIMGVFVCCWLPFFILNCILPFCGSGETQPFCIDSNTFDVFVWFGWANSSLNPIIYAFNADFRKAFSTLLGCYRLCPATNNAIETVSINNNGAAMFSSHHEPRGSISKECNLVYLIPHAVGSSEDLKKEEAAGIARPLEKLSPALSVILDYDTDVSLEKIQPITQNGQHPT

[38] = molecular target: Glucocorticoid receptor (Homo sapiens) (UniProt P04150); experiment: hGR Cerep panel; details: Compound concentration 10.0 uM
Homo sapiens = species: Homo sapiens; experiment: hN muscle type alpha Cerep panel; details: Compound concentration 10.0 uM
[39] = molecular target: Histamine H2 receptor (Homo sapiens) (UniProt P25021); experiment: hH2 Cerep panel; details: Compound concentration 10.0 uM
[40] = molecular target: Neuronal acetylcholine receptor; alpha4/beta2 (Homo sapiens) (UniProt P17787+P43681); experiment: hNneuronala4b2 Cerep panel; details: Compound concentration 10.0 uM
[41] = molecular target: Translocator protein (Homo sapiens) (UniProt P30536); experiment: hTSPO Cerep panel; details: Compound concentration 10.0 uM
[42] = molecular target: Muscarinic acetylcholine receptor M3 (Homo sapiens) (UniProt P20309); details: Compound concentration 10.0 uM

## COCCc1ccc(-c2c(C)nc3c(N4CCOCC4)ccnn23)cn1 [JNJ-42396302]
[1]
  inhibition: -1%
[2]
  inhibition: -5%
[3]
  inhibition: 7%
[4]
  inhibition: 0%
[5]
  inhibition: 13%
[6]
  inhibition: -4%
[7]
  inhibition: 3%
[8]
  inhibition: 0%
[9]
  inhibition: 10%
[10]
  inhibition: -6%
[11]
  inhibition: 9%
[12]
  inhibition: -5%
[13]
  inhibition: 5.53%
[14]
  inhibition: 2%
[15]
  inhibition: -2%
[16]
  inhibition: 5%
[17]
  inhibition: -2%
[18]
  inhibition: 2%
[19]
  inhibition: -2%
[20]
  inhibition: -4%
[21]
  inhibition: -7%
[22]
  inhibition: 4%
[23]
  inhibition: 1%
[24]
  inhibition: -6%
[25]
  inhibition: -7%
[26]
  inhibition: 10%
[27]
  inhibition: 6%
[28]
  inhibition: -5%
[29]
  inhibition: -4%
[30]
  inhibition: 4%
[31]
  Ki: 32 µM
[32]
  Ki: 15 µM
[33]
  Ki: 33 µM
[34]
  Ki: 13 nM
[35]
  effect: 1.7%
Rattus norvegicus
  effect: 4.75%
[36]
  effect: -4.45%
[37]
  effect: 6.2%
[38]
  effect: 1.9%
Homo sapiens
  effect: -7.3%
[39]
  effect: 18.1%
[40]
  effect: -3%
[41]
  effect: 2.8%
[42]
  inhibition: 6.41%
